{"source": "the NIST ThermoML archive (doi:10.1016/j.jct.2014.07.017)", "assay": "mn = molality of the nth substance listed, in mol/kg", "settings": "298.15 K, 100 kPa, Liquid, Direct current cell with electrodes", "note": "Numbers after ± are expanded uncertainties."}
{"smiles": "CCNCC(O)c1cccc(O)c1.Cl", "note": "(stereo unspecified) [1-(3-hydroxyphenyl)-2-ethylaminoethanol hydrochloride] + O", "values": [{"measurement": "electrical conductivity", "setting": "m1 = 0.01028", "value": "0.03 ± 0.001", "unit": "S/m"}, {"measurement": "electrical conductivity", "setting": "m1 = 0.01115", "value": "0.033 ± 0.001", "unit": "S/m"}, {"measurement": "electrical conductivity", "setting": "m1 = 0.01209", "value": "0.037 ± 0.001", "unit": "S/m"}, {"measurement": "electrical conductivity", "setting": "m1 = 0.01313", "value": "0.041 ± 0.001", "unit": "S/m"}, {"measurement": "electrical conductivity", "setting": "m1 = 0.01425", "value": "0.045 ± 0.001", "unit": "S/m"}, {"measurement": "electrical conductivity", "setting": "m1 = 0.01546", "value": "0.051 ± 0.001", "unit": "S/m"}, {"measurement": "electrical conductivity", "setting": "m1 = 0.01677", "value": "0.056 ± 0.001", "unit": "S/m"}, {"measurement": "electrical conductivity", "setting": "m1 = 0.0182", "value": "0.061 ± 0.001", "unit": "S/m"}, {"measurement": "electrical conductivity", "setting": "m1 = 0.01896", "value": "0.065 ± 0.001", "unit": "S/m"}, {"measurement": "electrical conductivity", "setting": "m1 = 0.01974", "value": "0.068 ± 0.001", "unit": "S/m"}, {"measurement": "electrical conductivity", "setting": "m1 = 0.02057", "value": "0.072 ± 0.001", "unit": "S/m"}, {"measurement": "electrical conductivity", "setting": "m1 = 0.02143", "value": "0.075 ± 0.001", "unit": "S/m"}, {"measurement": "electrical conductivity", "setting": "m1 = 0.02232", "value": "0.078 ± 0.001", "unit": "S/m"}, {"measurement": "electrical conductivity", "setting": "m1 = 0.02325", "value": "0.082 ± 0.001", "unit": "S/m"}, {"measurement": "electrical conductivity", "setting": "m1 = 0.02422", "value": "0.087 ± 0.001", "unit": "S/m"}, {"measurement": "electrical conductivity", "setting": "m1 = 0.02523", "value": "0.09 ± 0.001", "unit": "S/m"}, {"measurement": "electrical conductivity", "setting": "m1 = 0.02628", "value": "0.095 ± 0.001", "unit": "S/m"}, {"measurement": "electrical conductivity", "setting": "m1 = 0.02737", "value": "0.101 ± 0.001", "unit": "S/m"}, {"measurement": "electrical conductivity", "setting": "m1 = 0.02851", "value": "0.105 ± 0.001", "unit": "S/m"}, {"measurement": "electrical conductivity", "setting": "m1 = 0.0297", "value": "0.109 ± 0.001", "unit": "S/m"}, {"measurement": "electrical conductivity", "setting": "m1 = 0.03094", "value": "0.115 ± 0.001", "unit": "S/m"}, {"measurement": "electrical conductivity", "setting": "m1 = 0.03222", "value": "0.12 ± 0.001", "unit": "S/m"}, {"measurement": "electrical conductivity", "setting": "m1 = 0.03357", "value": "0.126 ± 0.001", "unit": "S/m"}, {"measurement": "electrical conductivity", "setting": "m1 = 0.03497", "value": "0.132 ± 0.001", "unit": "S/m"}, {"measurement": "electrical conductivity", "setting": "m1 = 0.03643", "value": "0.138 ± 0.001", "unit": "S/m"}, {"measurement": "electrical conductivity", "setting": "m1 = 0.03795", "value": "0.145 ± 0.002", "unit": "S/m"}, {"measurement": "electrical conductivity", "setting": "m1 = 0.03953", "value": "0.15 ± 0.002", "unit": "S/m"}, {"measurement": "electrical conductivity", "setting": "m1 = 0.04117", "value": "0.155 ± 0.002", "unit": "S/m"}, {"measurement": "electrical conductivity", "setting": "m1 = 0.04289", "value": "0.159 ± 0.002", "unit": "S/m"}, {"measurement": "electrical conductivity", "setting": "m1 = 0.04468", "value": "0.165 ± 0.002", "unit": "S/m"}, {"measurement": "electrical conductivity", "setting": "m1 = 0.04654", "value": "0.171 ± 0.002", "unit": "S/m"}, {"measurement": "electrical conductivity", "setting": "m1 = 0.04848", "value": "0.177 ± 0.002", "unit": "S/m"}, {"measurement": "electrical conductivity", "setting": "m1 = 0.0505", "value": "0.185 ± 0.002", "unit": "S/m"}, {"measurement": "electrical conductivity", "setting": "m1 = 0.0526", "value": "0.191 ± 0.002", "unit": "S/m"}, {"measurement": "electrical conductivity", "setting": "m1 = 0.05479", "value": "0.195 ± 0.002", "unit": "S/m"}, {"measurement": "electrical conductivity", "setting": "m1 = 0.05708", "value": "0.203 ± 0.002", "unit": "S/m"}, {"measurement": "electrical conductivity", "setting": "m1 = 0.05945", "value": "0.208 ± 0.002", "unit": "S/m"}, {"measurement": "electrical conductivity", "setting": "m1 = 0.06193", "value": "0.216 ± 0.002", "unit": "S/m"}, {"measurement": "electrical conductivity", "setting": "m1 = 0.06451", "value": "0.224 ± 0.002", "unit": "S/m"}, {"measurement": "electrical conductivity", "setting": "m1 = 0.0672", "value": "0.232 ± 0.002", "unit": "S/m"}, {"measurement": "electrical conductivity", "setting": "m1 = 0.07", "value": "0.241 ± 0.002", "unit": "S/m"}]}
